Key:
[1] = test system: H3122; test: Effect on cell apoptosis (Western Blot, PARP and Caspase 3 cleavage), H3122; assay type: cell-based, human; settings: H3122 (ALK gene), 24 hours
Text: (§1) In order to confirm whether the death of cells is through apoptosis or necrosis after administration of drugs, non-small cell lung cancer cell A549 (expressing wild-type EGFR gene), non-small cell lung cancer cell line H1975 (expressing EGFR L858R/T790M double mutant gene), non-small cell lung cancer cell line H3255 (expressing EGFR L858R mutant gene), non-small cell lung cancer cell line H3122 (expressing ALK gene) cell line, and non-small cell lung cancer cell line PC-9 (expressing EGFR delE746_A750 mutant gene) were tested for effect of Compound 1 on cleavage of poly ADP-ribose polymerase PARP which is a DNA repair enzyme and Caspase 3, which were closely related to cell apoptosis. […] Western Blot was used to detect the effect of various concentrations of drugs at various time points on cleavage of poly ADP-ribose polymerase PARP which is a DNA repair enzyme and Caspase 3.

[2] = test system: A431; test: Growth of cancer cells (Cell Titer-Glo viability), A431; assay type: cell-based; settings: Homo sapiens, A-431; A431 (wild-type EGFR), 72 hrs; read-out: GI50
[3] = test system: H1975; test: Effect on cell apoptosis (Western Blot, PARP and Caspase 3 cleavage), H1975; assay type: cell-based, human; settings: H1975 (EGFR L858R/T790M), 24 hours
Text: as §1

[4] = test system: NCI-H1975; test: Growth of cancer cells (Cell Titer-Glo viability), NCI-H1975; assay type: cell-based; settings: Homo sapiens; NCI-H1975 (EGFR L858R/T790M double mutant), 72 hrs
Outline: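 Cells are counted as viable by CellTiter-Glo chemiluminescence. Murine BaF3 lines depend on a stably transfected TEL-fused kinase after IL-3 withdrawal, and the NSCLC lines express mutant EGFR.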

[5] = test system: ALK protein (H3122); test: Effect on signaling pathway in cells, H3122; assay type: cell-based, human; settings: H3122 (expressing ALK gene), 4 h
Description: In non-small cell lung cancer cell line H3122 (expressing ALK gene), the effect of Compound 1 on other protein kinases that are closely related to ALK such as Stat3, Ras, MEK1/2, ErK, mTOR, PI3K, JAK3, AKT in this cell was assessed by assaying a number of cellular biochemical and functional endpoints. […] The effect of Compound 1 on phosphorylation of Stat3 Y705, Ras, MEK1/2S217/221, Erk T202/204, mTOR, PI3K, JAK3Tyr980/981, AKT T308, AKT 5473 in this cell line was assayed (FIG. 1e).
In non-small cell lung cancer cell line H3122 (expressing ALK gene), the effect of Compound 10 on ALK and other protein kinases that are closely related to ALK such as Stat3, Ras, MEK1/2, ErK, mTOR, PI3K, JAK3, AKT in this cell was assessed by assaying a number of cellular biochemical and functional endpoints. The lung cancer cell H3122 (expressing ALK gene) was treated with different concentrations of 0 μM, 0.03 μM, 0.1 μM, 0.3 μM, 1 μM, 3 μM of Compound 10 (in DMSO), 1 μM of AZD9291 (in DMSO) (purchased from Shanghai Haoyuan Chemexpress Co., Ltd.), 1 μM of LDK378 (in DMSO) (purchased from Shanghai Haoyuan Chemexpress Co., Ltd.), and blank control (DMSO) for 4 h, and the samples were collected. The effect of Compound 10 on phosphorylation of ALK Y1604, Stat3 Y705, Ras, MEK1/25217/221, Erk T202/204, mTOR, PI3K, JAK3 Tyr980/981, AKT T308, AKT S473 in this cell line was assayed (FIG. 1f).

[6] = test system: BaF3-NPM-ALK; test: Cell growth (Cell Titer-Glo viability), BaF3-NPM-ALK; assay type: cell-based; settings: Mus musculus; BaF3-NPM-ALK (stably expressing ALK kinase), 72 hrs

Row | SMILES | concentration at which evident cleavage of PARP and Caspase 3 could be observed [1] | GI50 [2] | concentration at which cleavage of PARP and Caspase 3 could be observed [3] | GI50 [4] | concentration able to significantly inhibit the phosphorylation of ALK protein [5] | concentration that almost completely inhibited the phosphorylation of ALK protein [5] | effects on other protein kinases closely related to ALK protein (Stat3, Ras, MEK1/2, ErK, JAK3, AKT) [5] | GI50 [6]
1 | C=CC(=O)Nc1cc(Nc2ncc(Cl)c(Nc3ccccc3S(=O)(=O)C(C)C)n2)c(OC)cc1N1CCN(CC)CC1 [Compound 1, N-(5-(5-chloro-4-(2-(isopropylsulfonyl)phenylamino)pyrimidin-2-ylamino)-2-(4-ethylpiperazin-1-yl)-4-methoxyphenyl)acrylamide] | 0.03 µM | 62 nM | 0.3 µM | 67 nM | 0.1 µM | 0.3 µM | evident effects | < 0.3 nM
2 | C=CC(=O)Nc1cc(Nc2ncc(Cl)c(Nc3ccccc3S(=O)(=O)C(C)C)n2)c(OC)cc1N1CCCN(C)CC1 [Compound 10, N-(5-(5-chloro-4-(2-(isopropylsulfonyl)phenylamino)pyrimidin-2-ylamino)-4-methoxy-2-(4-methyl-1,4-homopiperazin-1-yl)phenyl)acrylamide] | 1 µM | 170 nM | 0.3 µM | 15 nM | 0.03 µM | 0.1 µM | evident effects | 1 nM
